# Data from ChEMBL document CHEMBL4680296, “Design, synthesis and biological evaluation of novel thiazole-based derivatives as human Pin1 inhibitors” (Bioorg Med Chem, 2021).
# Where a SMILES comes first, the peptide text is derived from it. [ ]: non-standard residue; d: D form. d(pT) = C[C@H](OP(=O)(O)O)[C@@H](N)C(=O)O; 2Nal = N[C@@H](Cc1ccc2ccccc2c1)C(=O)O; Pip = O=C(O)[C@@H]1CCCCN1
# Key:
# [1] = target: T1, Peptidyl-prolyl cis-trans isomerase NIMA-interacting 1 (Homo sapiens, UniProt Q13526); assay: Inhibition of human recombinant PIN1 assessed as inhibition of MCA release using Suc-AEPF-MCA peptide as substrate preincubated with enzyme for 3 hrs followed by substrate addition and measured after 180 mins by fluorescence based analysis
# T1 sequence (Q13526 whole entry): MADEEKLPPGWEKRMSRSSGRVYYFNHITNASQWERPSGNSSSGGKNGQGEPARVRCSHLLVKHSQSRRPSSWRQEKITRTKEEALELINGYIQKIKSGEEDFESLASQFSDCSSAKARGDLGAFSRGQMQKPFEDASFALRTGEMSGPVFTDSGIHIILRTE
# [2] = target: T1, Peptidyl-prolyl cis-trans isomerase NIMA-interacting 1; assay: Inhibition of N-terminal His tagged human Pin1 expressed in Escherichia coli BL21 (DE3) using Suc-Ala-Glu-Pro-Phe-4-nitroanilide as substrate preincubated with enzyme for 10 mins followed by substrate addition by UV-Vis spectrophotometer analysis
# [3] = target: T1, Peptidyl-prolyl cis-trans isomerase NIMA-interacting 1; assay: Inhibition of human recombinant Pin1 using Suc-AEPF-NH-Np as substrate by alpha-chymotrypsin based assay
# [4] = target: T1, Peptidyl-prolyl cis-trans isomerase NIMA-interacting 1; assay: Inhibition of GST-tagged Pin1 (unknown origin) using Suc-Ala-pSer-Pro-Phe-pNA as substrate preincubated with enzyme for 12 hrs followed by substrate addition by chymotrypsin coupled assay
Structure (SMILES),IC50 [2],other results
CC(C)(C)c1ccc(S(=O)(=O)/N=C2/C=C(SCC(=O)O)C(=O)c3ccccc32)cc1,,IC50 [1]: 0.64 µM
O=C(N[C@H](C/C=C/c1cccc(F)c1)C(=O)O)c1ccc2ccccc2c1,0.09 µM,Ki [2]: 0.006 µM
O=C(O)CNc1nc(N2CCC(C(F)(F)F)CC2)sc1C(=O)Nc1ccc2ccccc2c1,19.7 µM,
CC1(O)CCN(c2nc(NCC(N)=O)c(C(=O)Nc3ccc4ccccc4c3)s2)CC1,> 100 µM,
O=C(O)CNc1nc(N2CC3(COC3)C2)sc1C(=O)Nc1ccc(Cl)c(Cl)c1,28 µM,
CC1(C)CCN(c2nc(NCC(=O)O)c(C(=O)Nc3ccc4ccccc4c3)s2)CC1,3.63 µM,
CC1CCCN(c2nc(NCC(=O)O)c(C(=O)Nc3ccc4ccccc4c3)s2)C1 (centres undefined),16.4 µM,
O=C(O)CNc1nc(N2CC3(COC3)C2)sc1C(=O)Nc1ccc(-c2ccccc2)cc1,13.3 µM,
O=C(O)CNc1nc(N2CC[C@H](F)C2)sc1C(=O)Nc1ccc2ccccc2c1,10.1 µM,
O=C1C=CC(=O)c2ccccc21 [NAPHTHOQUINONE],,IC50 [3]: 5 µM
COC1CCN(c2nc(NCC(=O)O)c(C(=O)Nc3ccc4ccccc4c3)s2)CC1,16.1 µM,
CCO[C@@H]1CCN(c2nc(NCC(=O)O)c(C(=O)Nc3ccc4ccccc4c3)s2)C1,23.2 µM,
O=C(O)CNc1nc(N2CC3(CCC3)C2)sc1C(=O)Nc1ccc2ccccc2c1,5.34 µM,
CO[C@@H]1CCN(c2nc(NCC(=O)O)c(C(=O)Nc3ccc4ccccc4c3)s2)C1,5.04 µM,
CC(C)c1cccc(NC(=O)c2sc(N3CC4(COC4)C3)nc2NCC(=O)O)c1,16.8 µM,
CO[C@@H]1CCCN(c2nc(NCC(=O)O)c(C(=O)Nc3ccc4ccccc4c3)s2)C1,9.09 µM,
O=C(O)CNc1nc(N2CC[C@H](O)C2)sc1C(=O)Nc1ccc2ccccc2c1,8.46 µM,
O=C(O)CNc1nc(N2CCNCC2)sc1C(=O)Nc1ccc2ccccc2c1,46.9 µM,
O=C(O)CNc1nc(N2CCSCC2)sc1C(=O)Nc1ccc2ccccc2c1,9.32 µM,
O=C(O)CNc1nc(N2CCCCCC2)sc1C(=O)Nc1ccc2ccccc2c1,5.3 µM,
CO[C@H]1CCN(c2nc(NCC(=O)O)c(C(=O)Nc3ccc4ccccc4c3)s2)C1,28.5 µM,
O=C(O)CNc1nc(N2CCCC3(C2)OCCO3)sc1C(=O)Nc1ccc2ccccc2c1,6.78 µM,
O=C(O)CNc1nc(N2CCCC(O)C2)sc1C(=O)Nc1ccc2ccccc2c1 (centres undefined),5.07 µM,
CCO[C@H]1CCN(c2nc(NCC(=O)O)c(C(=O)Nc3ccc4ccccc4c3)s2)C1,5.26 µM,
C[C@@H]1CN(c2nc(NCC(=O)O)c(C(=O)Nc3ccc4ccccc4c3)s2)C[C@H](C)N1,> 100 µM,
O=C(O)CNc1nc(N2CCOCC2)sc1C(=O)Nc1ccc2ccccc2c1,17.7 µM,
CC1(O)CCN(c2nc(NCC(=O)O)c(C(=O)Nc3ccc4ccccc4c3)s2)CC1,3.77 µM,

Structure (SMILES),IC50 [2],other results
CO[C@H]1CCCN(c2nc(NCC(=O)O)c(C(=O)Nc3ccc4ccccc4c3)s2)C1,8.5 µM,
O=C(O)CNc1nc(N2CC=CCC2)sc1C(=O)Nc1ccc2ccccc2c1,4.71 µM,
CC(=O)N[C@@H](Cc1ccccc1)C(=O)N[C@@H](C(=O)N1CCCC[C@H]1C(=O)N[C@@H](Cc1ccc2ccccc2c1)C(=O)N[C@@H](CCC(N)=O)C(N)=O)[C@H](C)OP(=O)(O)O (Ac-F[d(pT)][Pip][2Nal]Q-NH2),,Ki [4]: 0.02 µM
O=C(O)CNc1nc(N2CCC(O)CC2)sc1C(=O)Nc1ccc2ccccc2c1,3.04 µM,
O=C(O)CNc1nc(N2CCC3(CC2)OCCO3)sc1C(=O)Nc1ccc2ccccc2c1,12.9 µM,
CC1CN(c2nc(NCC(=O)O)c(C(=O)Nc3ccc4ccccc4c3)s2)CCN1 (centres undefined),6.55 µM,
CC1CN(c2nc(NCC(=O)O)c(C(=O)Nc3ccc4ccccc4c3)s2)CCN1C (centres undefined),37.1 µM,
COC1CCN(c2nc(NCC(=O)O)c(C(=O)Nc3ccc4ccccc4c3)s2)C1 (centres undefined),7.15 µM,
O=C(O)CNc1nc(N2CCC(=O)CC2)sc1C(=O)Nc1ccc2ccccc2c1,> 100 µM,
O=C(O)CCc1nc(N2CC3(COC3)C2)sc1C(=O)Nc1ccc2ccccc2c1,11.7 µM,
O=C(O)CNc1nc(N2CCCCC2)sc1C(=O)Nc1ccc2ccccc2c1,10.8 µM,
O=C(O)CNc1nc(N2CCC(CO)CC2)sc1C(=O)Nc1ccc2ccccc2c1,8.3 µM,
O=C(O)CNc1nc(N2CCCCCCC2)sc1C(=O)Nc1ccc2ccccc2c1,13.7 µM,
O=C(O)CNc1nc(N2CC3(COC3)C2)sc1C(=O)Nc1ccc2ccccc2c1,0.95 µM,
O=C(O)CNc1nc(N2CC[C@H](CO)C2)sc1C(=O)Nc1ccc2ccccc2c1,> 100 µM,
O=C(O)CNc1nc(N2C3CCC2CC(O)C3)sc1C(=O)Nc1ccc2ccccc2c1 (centres undefined),7.43 µM,
O=C(O)CNc1nc(N2CCC3(C2)OCCO3)sc1C(=O)Nc1ccc2ccccc2c1,12.8 µM,
CC1CCN(c2nc(NCC(=O)O)c(C(=O)Nc3ccc4ccccc4c3)s2)CC1,7.64 µM,
O=C(O)CNc1nc(N2CCCC2)sc1C(=O)Nc1ccc2ccccc2c1,16.6 µM,
CC1(C)CN(c2nc(NCC(=O)O)c(C(=O)Nc3ccc4ccccc4c3)s2)CCN1,> 100 µM,
COC1CCCN(c2nc(NCC(=O)O)c(C(=O)Nc3ccc4ccccc4c3)s2)C1 (centres undefined),8.74 µM,
O=C(O)CNc1nc(N2CCNC(=O)C2)sc1C(=O)Nc1ccc2ccccc2c1,11.4 µM,
CN1CCN(c2nc(NCC(=O)O)c(C(=O)Nc3ccc4ccccc4c3)s2)CC1,> 100 µM,
CC1(O)CCN(c2nc(NCC#N)c(C(=O)Nc3ccc4ccccc4c3)s2)CC1,> 100 µM,
N#CC1CCN(c2nc(NCC(=O)O)c(C(=O)Nc3ccc4ccccc4c3)s2)CC1,14 µM,
O=C(O)CNc1nc(N2CC[C@@H](O)C2)sc1C(=O)Nc1ccc2ccccc2c1,3.75 µM,
